The values below are quoted from earlier work in patent publication US20100280071A1, “BENZIMIDAZOLES WHICH HAVE ACTIVITY AT M1 RECEPTOR AND THEIR USES IN MEDICINE” (priority 2006, published 2010).

Data set [1] deals with A10 and A9 dopamine cells. As to conditions: A10 versus A9 cells.
The subject of data set [2] is unilateral 6-OH-DA lesioned rats.
A further data set has as its system c-fos expression. As to conditions: prefrontal cortex, nucleus accumbens, striatum; rats.
The conditions of data set [3]: in vivo.

With `CCCCCCOc1nsnc1C1=CCCN(C)C1` [xanomeline], the dopamine cell firing result in data set [1] is on record as “inhibit A10, but not A9”. For the same molecule, the “effect on dopamine agonist driven turning” value in data set [2] was “reverses”. Further, in the data set on monkeys, the EPS liability entry is reported as “without EPS liability” and the “effect on amphetamine-induced motor unrest” value is on record as “reverses”. For the same molecule, the c-fos expression result in the data set with c-fos expression is “induces c-fos expression in prefrontal cortex and nucleus accumbens, but not in striatum”. Also, the “psychotic symptoms such as suspiciousness, hallucinations and delusions” value in the data set with Alzheimer's patients (Alzheimer's patients) was “reduce psychotic symptoms”. The side effects result in the data set on Alzheimer's patients (attributed to relatively non-selective nature of the compound) is reported as “dose-limiting peripheral cholinergic side effects”. For the same molecule, the “effect on apomorphine induced climbing” value in the data set on mice is “reverses”. In addition, in data set [3], the conditioned avoidance entry is recorded as “inhibit”. For the same molecule, in the data set on rats, the “effect on amphetamine induced locomotion” value is listed as “reverses”.
